Measurements published in patent publication US12030908B2, “Antimicrobial compounds, compositions, and uses thereof” (Lakewood Amedex, Inc., priority 2017, dated 2024).

Columns and labels:
Enterococcus faecalis = assay: MIC at pH 3.5, CLSI, Mueller-Hinton broth; format: cell-based; details: 5 isolates
Protocol: (§1) Bacterial strains evaluated in this study include Escherichia coli, Klebsiella spp, Serratia marcescens, Proteus mirabilis/vulgaris, Citrobacter spp, Providencia spp, Morganella morganii, Pseudomonas aeruginosa, Staphylococcus aureus (MRSA only), and Enterococcus faecalis. Nu-8 test solutions are adjusted to pH 3.5 with citric acid, and […] is evaluated per the CLSI methods in Mueller-Hinton broth supplemented accordingly to facilitate growth of specific strains.

Serratia marcescens = assay: MIC at pH 3.5, CLSI, Mueller-Hinton broth; format: cell-based; details: 5 isolates
Protocol: as §1

Morganella morganii = assay: MIC at pH 3.5, CLSI, Mueller-Hinton broth; format: cell-based; details: 5 isolates
Protocol: as §1

Klebsiella pneumoniae = assay: MIC at pH 3.5, CLSI, Mueller-Hinton broth; format: cell-based; details: 5 isolates
Protocol: as §1

[1] = test system: Proteus mirabilis/vulgaris; assay: MIC at pH 3.5, CLSI, Mueller-Hinton broth; format: cell-based; details: 5 isolates
Protocol: as §1

Pseudomonas aeruginosa = assay: MIC at pH 3.5, CLSI, Mueller-Hinton broth; format: cell-based; details: 20 isolates
Protocol: as §1

Citrobacter species = assay: MIC at pH 3.5, CLSI, Mueller-Hinton broth; format: cell-based; details: 5 isolates
Protocol: as §1

Providencia species = assay: MIC at pH 3.5, CLSI, Mueller-Hinton broth; format: cell-based; details: 5 isolates
Protocol: as §1

Escherichia coli = assay: MIC at pH 3.5, CLSI, Mueller-Hinton broth; format: cell-based; details: 5 isolates
Protocol: as §1

[2] = test system: Staphylococcus aureus (MRSA); assay: MIC at pH 3.5, CLSI, Mueller-Hinton broth; format: cell-based; details: 20 isolates
Protocol: as §1

[3] = test system: wild type E. coli (ATCC 25922); assay: Bacterial cytological profiling at pH 4, 5.5, 7 (Example 7), E. coli; format: cell-based; details: pH 5.5 and 7
Protocol: This bacterial cytological profiling (BCP) investigation uses methods and materials described previously by Nonejuie, P., Burkart, M., Poglianoa, K., Pogiano, J. (2013). Bacterial cytological profiling rapidly identifies the cellular pathways targeted by antibacterial molecules. Proc. Natl. Acad. Sci. U.S.A. 110(40):16169-16174. doi: 10.1073/pnas.1311066110.
For viable cell counts, cells are grown to OD600≈0.4 and diluted 1:1 into buffered or unbuffered media containing various compound concentrations. Samples are then collected and serially diluted (1:10) on a 96 well plate. Five microliters from each well are spotted on LB plates, incubated at 30° C., and viable cells are counted the next day.
Samples are collected at 10, 30, 120, and 240 min of exposure for viable cell count and imaging. For imaging, E. coli and S. aureus 200 μL of treated cells per time point are stained with 0.8 μg/mL FM4-64, 1.5 μg/mL DAPI, and 0.4 μM SYTOXGreen (Molecular Probes/Invitrogen). P. aeruginosa samples are stained 0.4 μM SYTOX Green, 28 μg/mL DAPI, and 1 μg/mL FM 4-64. Cells are transferred to an agarose pad (20% LB, 1% agarose) for imaging.
For Nu-3 and Nu-8 stocks (at pH 4, 5.5 and 7), stock concentration is 500 mg/mL. For pH 4, the stocks are prepared by dissolving Nu-3 in 25 mM citrate buffer and Nu-8 in 350 mM citric acid. […]

pKa measurement = format: physicochemical

Compound: CCCCOP(=O)(O)OC[C@H]1O[C@@H](n2ccc(N)nc2=O)C[C@@H]1OP(=O)(O)OCCCC [Nu-8, sodium ((2R,3S,5R)-5-(4-amino-2-oxopyrimidin-1(2H)-yl)-3-((butoxyoxidophosphor-yl)oxy)tetrahydrofuran-2-yl)methyl butyl phosphate]
- Nu-8 MIC (mg/mL) at pH 3.5 (Enterococcus faecalis): 4.69-18.75 mg/mL
- Nu-8 MIC (mg/mL) at pH 3.5 (Serratia marcescens): 37.5-75 mg/mL
- Nu-8 MIC (mg/mL) at pH 3.5 (Morganella morganii): 18.75 mg/mL
- Nu-8 MIC (mg/mL) at pH 3.5 (Klebsiella pneumoniae): 37.5-75 mg/mL
- Nu-8 MIC (mg/mL) at pH 3.5 [1]: 4.69-18.75 mg/mL
- MIC50 at pH 3.5 (Pseudomonas aeruginosa): 18.75 mg/mL
- MIC90 at pH 3.5 (Pseudomonas aeruginosa): 18.75 mg/mL
- Nu-8 MIC (mg/mL) at pH 3.5 (Pseudomonas aeruginosa; MIC range): 9.38-18.75 mg/mL
- Nu-8 MIC (mg/mL) at pH 3.5 (Citrobacter species): 18.75-37.5 mg/mL
- Nu-8 MIC (mg/mL) at pH 3.5 (Providencia species): 9.38-37.5 mg/mL
- Nu-8 MIC (mg/mL) at pH 3.5 (Escherichia coli): 37.5 mg/mL
- MIC50 at pH 3.5 [2]: 18.75 mg/mL
- MIC90 at pH 3.5 [2]: 37.5 mg/mL
- Nu-8 MIC (mg/mL) at pH 3.5 ([2]; MIC range): 9.38-37.5 mg/mL
- effect on cell permeability, cell viability and growth [3]: alters E. coli cell permeability and reduces cell viability and growth
- pKa (pKa measurement): 3.20
